Laboratory results taken from publication PMC5908474 (European journal of medicinal chemistry, 2018).
Read-outs that look alike come from different tables or passages of the source. Blank lines part the entries; values can stand above or below the molecule they belong to.

Legend:
recombinant human S1PR4 = biological target: T1, recombinant human S1PR4 (Homo sapiens, UniProt O95977); assay: [32P]S1P competitive binding assay, S1PR4
T1 sequence (O95977 1-384): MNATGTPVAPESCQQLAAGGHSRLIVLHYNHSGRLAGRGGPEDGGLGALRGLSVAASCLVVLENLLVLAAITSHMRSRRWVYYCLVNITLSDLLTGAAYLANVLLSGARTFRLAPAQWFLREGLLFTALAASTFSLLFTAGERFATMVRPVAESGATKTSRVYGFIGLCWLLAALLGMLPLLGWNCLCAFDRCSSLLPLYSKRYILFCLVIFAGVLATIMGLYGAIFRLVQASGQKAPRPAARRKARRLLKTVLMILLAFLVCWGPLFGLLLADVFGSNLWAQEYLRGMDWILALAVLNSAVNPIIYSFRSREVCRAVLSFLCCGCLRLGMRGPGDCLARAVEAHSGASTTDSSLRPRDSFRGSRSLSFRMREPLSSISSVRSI

recombinant human S1PR2 = recombinant human S1PR2 (Homo sapiens, UniProt O95136); assay: [32P]S1P competitive binding assay, S1PR2
Chain of recombinant human S1PR2 (O95136 whole entry): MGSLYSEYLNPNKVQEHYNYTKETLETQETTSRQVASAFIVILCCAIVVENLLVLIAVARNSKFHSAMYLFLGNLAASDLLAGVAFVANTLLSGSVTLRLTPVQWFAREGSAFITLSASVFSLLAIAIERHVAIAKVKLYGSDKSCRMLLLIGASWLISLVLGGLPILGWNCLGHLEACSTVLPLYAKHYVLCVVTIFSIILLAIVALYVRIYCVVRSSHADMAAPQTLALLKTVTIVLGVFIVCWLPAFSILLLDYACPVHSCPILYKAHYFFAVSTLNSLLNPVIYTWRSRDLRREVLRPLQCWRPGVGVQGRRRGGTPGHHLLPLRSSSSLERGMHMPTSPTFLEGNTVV

recombinant human S1PR3 = recombinant human S1PR3 (Homo sapiens, UniProt Q99500); assay: [32P]S1P competitive binding assay, S1PR3
Chain of recombinant human S1PR3 (Q99500 whole entry): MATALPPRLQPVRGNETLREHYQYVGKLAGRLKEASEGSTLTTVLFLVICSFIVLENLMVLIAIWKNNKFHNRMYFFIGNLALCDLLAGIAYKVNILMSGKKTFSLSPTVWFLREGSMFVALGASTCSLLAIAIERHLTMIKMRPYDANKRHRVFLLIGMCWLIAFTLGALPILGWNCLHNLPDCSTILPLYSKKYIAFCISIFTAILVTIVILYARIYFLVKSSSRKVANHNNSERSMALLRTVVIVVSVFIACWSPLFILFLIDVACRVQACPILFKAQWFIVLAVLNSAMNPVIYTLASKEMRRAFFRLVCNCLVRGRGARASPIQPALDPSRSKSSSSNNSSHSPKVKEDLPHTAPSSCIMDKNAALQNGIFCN

recombinant human S1PR5 = recombinant human S1PR5 (Homo sapiens, UniProt Q9H228); assay: [32P]S1P competitive binding assay, S1PR5
Chain of recombinant human S1PR5 (Q9H228 whole entry): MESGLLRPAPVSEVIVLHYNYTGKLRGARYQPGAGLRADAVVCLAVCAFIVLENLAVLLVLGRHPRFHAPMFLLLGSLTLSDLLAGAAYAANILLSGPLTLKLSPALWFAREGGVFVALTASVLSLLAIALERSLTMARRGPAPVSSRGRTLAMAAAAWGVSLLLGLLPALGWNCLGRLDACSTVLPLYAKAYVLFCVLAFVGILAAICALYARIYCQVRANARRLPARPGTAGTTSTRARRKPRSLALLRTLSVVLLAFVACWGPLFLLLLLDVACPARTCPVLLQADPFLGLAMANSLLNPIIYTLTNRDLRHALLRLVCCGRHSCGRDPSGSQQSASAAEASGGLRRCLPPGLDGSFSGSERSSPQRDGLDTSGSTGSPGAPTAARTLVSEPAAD

recombinant human S1PR1 = recombinant human S1PR1 (Homo sapiens, UniProt P21453); assay: [32P]S1P competitive binding assay, S1PR1; conditions: for IC50: mean ± SD, CHO cell membrane, recombinant human S1PR1, 0.1 nM [32P]S1P; for fold increased S1PR1 IC50 value compared to compound 4: vs compound 4 (2.6 nM)
Chain of recombinant human S1PR1 (P21453 whole entry): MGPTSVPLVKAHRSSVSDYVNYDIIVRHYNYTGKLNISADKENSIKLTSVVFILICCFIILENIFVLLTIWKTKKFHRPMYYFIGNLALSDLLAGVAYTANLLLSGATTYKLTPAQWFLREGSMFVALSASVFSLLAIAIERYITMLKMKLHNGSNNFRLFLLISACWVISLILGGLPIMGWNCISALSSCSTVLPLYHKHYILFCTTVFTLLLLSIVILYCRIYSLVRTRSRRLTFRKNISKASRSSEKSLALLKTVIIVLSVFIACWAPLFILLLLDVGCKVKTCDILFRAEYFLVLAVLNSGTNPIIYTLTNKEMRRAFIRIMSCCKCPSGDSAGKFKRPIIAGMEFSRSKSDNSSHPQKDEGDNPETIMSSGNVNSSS

Compound: O=C(O)CCNCc1ccc(-c2noc(-c3ccc(OCCF)c(C(F)(F)F)c3)n2)cc1 [16b, 3-((4-(5-(4-(2-Fluoroethoxy)-3-(trifluoromethyl)phenyl)-1,2,4-oxadiazol-3-yl)benzyl)amino)propanoic acid]
IC50 (recombinant human S1PR4): > 1000 nM
IC50 (recombinant human S1PR2): > 1000 nM
IC50 (recombinant human S1PR3): > 1000 nM
IC50 (recombinant human S1PR5): > 1000 nM
IC50 (recombinant human S1PR1; S1PR1 IC50 (nM)): 6.3 ± 1.3 nM

Compound: O=C(O)CNCc1ccc(-c2noc(-c3ccc(OCCF)c(C(F)(F)F)c3)n2)cc1 [16a, (4-(5-(4-(2-Fluoroethoxy)-3-(trifluoromethyl)phenyl)-1,2,4-oxadiazol-3-yl)benzyl)glycine]
IC50 (recombinant human S1PR1; S1PR1 IC50 (nM)): 99.8 ± 12.2 nM
fold increased S1PR1 IC50 value compared to compound 4 (recombinant human S1PR1): 38 fold

Compound: O=C(O)c1cn(Cc2ccc(-c3noc(-c4ccc(OCCF)c(C(F)(F)F)c4)n3)cc2)nn1 [12a, 1-(4-(5-(4-(2-Fluoroethoxy)-3-(trifluoromethyl)phenyl)-1,2,4-oxadiazol-3-yl)benzyl)-1H-1,2,3-triazole-4-carbox-ylic acid]
IC50 (recombinant human S1PR1; read-out: S1PR1 IC50): 341 ± 126 nM
fold increased S1PR1 IC50 value compared to compound 4 (recombinant human S1PR1): 130 fold

Compound: NS(=O)(=O)c1ccc(-c2noc(-c3ccc(OCCF)c(C(F)(F)F)c3)n2)cc1 [9a, 4-(5-(4-(2-Fluoroethoxy)-3-(trifluoromethyl)phenyl)-1,2,4-oxadiazol-3-yl)benzenesulfonamide]
IC50 (recombinant human S1PR2): > 1000 nM
IC50 (recombinant human S1PR3): > 1000 nM

Compound: NCCOCc1ccc(-c2noc(-c3ccc(OCCF)c(C(F)(F)F)c3)n2)cc1 [21b, 2-((4-(5-(4-(2-Fluoroethoxy)-3-(trifluoromethyl)phenyl)-1,2,4-oxadiazol-3-yl)benzyl)oxy)ethan-1-amine]
IC50 (recombinant human S1PR1; S1PR1 IC50 (nM)): 44.2 ± 6.8 nM

Compound: OCc1cn(Cc2ccc(-c3noc(-c4ccc(OCCF)c(C(F)(F)F)c4)n3)cc2)nn1 [12b, (1-(4-(5-(4-(2-Fluoroethoxy)-3-(trifluoromethyl)phenyl)-1,2,4-oxadiazol-3-yl)benzyl)-1H-1,2,3-triazol-4-yl)met-hanol]
IC50 (recombinant human S1PR4; read-out: IC50 (nM) S1PR4, mean ± SD, membranes with recombinant human S1PR4, [32P]S1P): > 1000 nM
IC50 (recombinant human S1PR2; read-out: IC50 (nM) S1PR2, mean ± SD, membranes with recombinant human S1PR2, [32P]S1P): > 1000 nM
IC50 (recombinant human S1PR3; read-out: IC50 (nM) S1PR3, mean ± SD, membranes with recombinant human S1PR3, [32P]S1P): > 1000 nM
IC50 (recombinant human S1PR5; read-out: IC50 (nM) S1PR5, mean ± SD, membranes with recombinant human S1PR5, [32P]S1P): > 1000 nM
selectivity toward S1PR1 over S1PR2-5 (recombinant human S1PR1; S1PR1 over S1PR2-5): > 100 fold
fold decreased S1PR1 IC50 value compared to acid 12a (recombinant human S1PR1; vs 12a (341 nM)): 35 fold

The remaining lines, values ahead:

IC50 (recombinant human S1PR1; S1PR1 IC50 (nM)): > 1000 nM
Compound: O=C(O)c1ccc(-c2noc(-c3ccc(OCCF)c(C(F)(F)F)c3)n2)cc1 [10a, 4-(5-(4-(2-Fluoroethoxy)-3-(trifluoromethyl)phenyl)-1,2,4-oxadiazol-3-yl)benzoic acid]

IC50 (recombinant human S1PR2): > 1000 nM
IC50 (recombinant human S1PR3): > 1000 nM
fold decreased S1PR1 IC50 value compared to compound 9b (recombinant human S1PR1; vs benzamide 9b): 5 fold
Compound: NNC(=O)c1ccc(-c2noc(-c3ccc(OCCF)c(C(F)(F)F)c3)n2)cc1 [10c, 4-(5-(4-(2-Fluoroethoxy)-3-(trifluoromethyl)phenyl)-1,2,4-oxadiazol-3-yl)benzohydrazide]

fold increased S1PR1 IC50 value compared to compound 9b (recombinant human S1PR1; vs benzamide 9b): 4 fold
Compound: O=C(NO)c1ccc(-c2noc(-c3ccc(OCCF)c(C(F)(F)F)c3)n2)cc1 [10b, 4-(5-(4-(2-Fluoroethoxy)-3-(trifluoromethyl)phenyl)-1,2,4-oxadiazol-3-yl)-N-hydroxybenzamide]
